Data set [1] can be described thus: Evaluation 1: 20-μm pattern line width of transparent photosensitive composition. Particulars: for 20-μm pattern line width: transparent composition, initiator 0.4 mmol. The procedure: After that, the mixture was filtered with a membrane filter having an aperture of 5 μm to provide a photosensitive composition.
It should be noted that the fluorene-based compound as a photopolymerization initiator was used in such an amount that its molar quantity was kept constant in the respective examples and comparative examples.
The glass substrate after the application was dried with a fan dryer at 90° C. for 10 minutes. Thus, a coating film (photosensitive layer) was formed. Next, the film was exposed to light having an exposure energy quantity of 5 mJ/cm^2, 10 mJ/cm^2, 20 mJ/cm^2, 40 mJ/cm^2, 60 mJ/cm^2, or 80 mJ/cm^2 by using a high-pressure mercury lamp (manufactured by Karl Suss, trade name: “MASK ALIGNER”) through a negative mask (mask width: 20 μm). Next, the resultant was immersed in a 0.1 wt % aqueous solution of tetramethylammonium hydroxide (TMAH) and then rinsed with pure water. The remaining cured film was subjected to the following evaluation.
(§1) A larger value for the line width means higher sensitivity.

Data set [2] is described as follows: Solubility in PGME, PGMEA and ethyl lactate. Format: physicochemical. To be noted: room temperature. The procedure: An evaluation for solubility was performed in accordance with the following evaluation criteria based on the dissolution amount.
A: 10 Parts by weight or more of the photopolymerization initiator is dissolved.
B: An amount in the range of from 5 parts by weight or more to less than 10 parts by weight of the photopolymerization initiator is dissolved.
C: An amount in the range of from 2 parts by weight or more to less than 5 parts by weight of the photopolymerization initiator is dissolved.
D: Less than 2 parts by weight of the photopolymerization initiator is dissolved.

The nature of data set [3]: Average transmittance of composition. Particulars: photosensitive composition, quartz cell, optical path length 1 cm. It is filed as physicochemical. The procedure:
The average transmittance (%) of each of the photosensitive resin compositions obtained in Examples 1 to 9, Examples 2-1 to 2-10, and Comparative Examples 1 and 2 in the range of from 400 nm to 700 nm was measured with a spectrophotometer (manufactured by Hitachi High-Technologies Corporation, trade name: “U-3900H”, quartz cell, optical path length; 1 cm).

Data set [4] in a line: Transmittance of transparent cured film. Format: physicochemical. To be noted: for Average transmittance (700 nm to 400 nm) Transparent cured film / Transmittance (400 nm) Transparent cured film: cured at exposure energy quantity 80 mJ/cm^2. As to the method: Transparent cured films were formed by using the photosensitive compositions obtained in Examples 1 to 9, Examples 2-1 to 2-10, and Comparative Examples 1 and 2 in the same manner as in the evaluation 1 except that the exposure energy quantity was set to 80 mJ/cm^2. The transmittance (%) of each of the resultant transparent cured films at 400 nm and the average transmittance (%) thereof in the range of from 400 to 700 nm were measured with a spectrophotometer (manufactured by Hitachi High-Technologies Corporation, trade name: “U-3900H”, quartz cell, optical path length; 1 cm). A higher transmittance at 400 nm means less coloring with a yellow color. In addition, a higher transmittance of a coating film means a higher transmitting property of a pattern to be formed.

The nature of data set [5]: Decomposition point by thermal analysis (TG-DTA). It is filed as physicochemical. To be noted: 5.0 mg. The procedure: The compounds 1, 2, 4, 6, 8, 9, 11, 12, 13, 15, 16, D-1, D-3, D-4, D-7, D-8, D-9, D-12, D-14, D-15, D-20, C-1, and C-2 were each subjected to measurement with a thermal analysis apparatus (TG-DTA) (manufactured by Rigaku Corporation, trade name: “Thermo Plus EVO TG 8120”) by using 5.0 mg thereof.

Data set [6] can be described thus: Absorption coefficient (absorbance of 0.001% solution in tetrahydrofuran). Format: physicochemical. To be noted: for Λ max (absorption maximum wavelength): 0.001% (wt/vol) in tetrahydrofuran, from 280 nm to 400 nm; for Absorption coefficient at 365 nm / Absorption coefficient at Λ max: 0.001% (wt/vol) solution in tetrahydrofuran. The procedure: A 0.001% (wt/vol) solution of each of the compounds 1, 2, 4, 6, 8, 9, 11, 12, 13, 15, 16, D-1, D-3, D-4, D-7, D-8, D-9, D-12, D-14, D-15, D-20, C-1, and C-2 in tetrahydrofuran was prepared, and its absorbance was measured with a spectrophotometer (manufactured by Hitachi High-Technologies Corporation, trade name: “U-3900H”). An absorption maximum wavelength (Amax) at a wavelength of from 280 nm to 400 nm was read from an absorption spectrum obtained with the spectrophotometer.

Data set [7] can be described thus: Evaluation 3: 20-μm pattern line width of black photosensitive composition. Particulars: black composition (carbon black, cardo resin), initiator 0.4 mmol.
Source text: The mixture was filtered with a membrane filter having an aperture of 5 μm to provide a photosensitive composition.
Photosensitive compositions were each obtained in the same manner as in Example 10 except that the used fluorene-based compound and its usage were changed as shown in Table 5.
Each of the photosensitive compositions obtained in Examples 10 to 15, Examples 2-11 to 2-20, and Comparative Example 3 was applied onto a glass substrate with a spin coater (manufactured by Kyowariken Co., Ltd., trade name: “K-359SD1”) so that its thickness after drying became 1.0 μm. The glass substrate after the application was dried with a fan dryer at 90° C. for 10 minutes. Thus, a coating film (photosensitive layer) was formed. Next, the film was exposed to light having an exposure energy quantity of 10 mJ/cm^2, 20 mJ/cm^2, 40 mJ/cm^2, 60 mJ/cm^2, or 80 mJ/cm^2 by using a high-pressure mercury lamp (manufactured by Karl Suss, trade name: “MASK ALIGNER”) through a negative mask (mask width: 20 μm). Next, the resultant was immersed in a 0.1 wt % aqueous solution of tetra methyl ammonium hydroxide (TMAH) and then rinsed with pure water. The remaining cured film was subjected to the following evaluation. In addition, FIGS. 2, 3, and 6 show microscope photographs of black cured films obtained by using the photosensitive compositions of Examples 10 and 11, and Comparative Example 3, and FIGS. 7 to 11 show microscope photographs of black cured films obtained by using the photosensitive compositions of Examples 2-11, 2-13, 2-14, 2-17, and 2-18.
as §1

[8] abbreviates: exposure energy quantity 10 mJ/cm^2.
The mark [9] stands for this setting: exposure energy quantity 20 mJ/cm^2.
Setting [10] is: exposure energy quantity 40 mJ/cm^2.
[11] abbreviates: exposure energy quantity 60 mJ/cm^2.
Setting [12] is: exposure energy quantity 80 mJ/cm^2.
Where [13] appears, read: exposure energy quantity 5 mJ/cm^2.
Setting [14] is: photopolymerization initiator containing the compound.

From patent publication US9684238B2, “Fluorene-type compound, photopolymerization initiator comprising said fluorene-type compound, and photosensitive composition containing said photopolymerization initiator” (TOKYO OHKA KOGYO CO., LTD., priority 2012, dated 2017) come the findings set out here.

With `CCn1c2ccc(/C(=N\OC(C)=O)c3ccc(OC(C)COC)cc3C)cc2c2cc([N+](=O)[O-])ccc21` (centres unmarked) [Compound C-2, reference compound], the “20-μm pattern line width” value in data set [1] (setting [8]) is reported as 21.3; in data set [1] (setting [9]), 22.3; in data set [1] (setting [10]), 23.6; in data set [1] (setting [11]), 23.5; in data set [1] (setting [12]) it was 24.0. For the same compound, the “Solubility Ethyl lactate” value in data set [2] (in 100 parts by weight of ethyl lactate) was “C (An amount in the range of from 2 parts by weight or more to less than 5 parts by weight of the photopolymerization initiator is dissolved.)”. Further, the “Solubility PGMEA” value in data set [2] (in 100 parts by weight of propylene glycol monomethyl ether acetate) is on record as “B (An amount in the range of from 5 parts by weight or more to less than 10 parts by weight of the photopolymerization initiator is dissolved.)”. For the same compound, in data set [2] (in 100 parts by weight of propylene glycol monomethyl ether), the “Solubility PGME” value is given as “C (An amount in the range of from 2 parts by weight or more to less than 5 parts by weight of the photopolymerization initiator is dissolved.)”. Moreover, in data set [3], the “Average transmittance (700 nm to 400 nm) Solution” value came out at 75.9%. For the same compound, the “Average transmittance (700 nm to 400 nm) Transparent cured film” value in data set [4] is given as 95.1%. Further, the “Transmittance (400 nm) Transparent cured film” value in data set [4] came out at 72.7%. In data set [5], this compound showed a Decomposition point of 264.0 °C. Further, the “Λ max (absorption maximum wavelength)” value in data set [6] is 369.0 nm. For the same compound, in data set [6], the “Absorption coefficient at 365 nm” value was 26.8 mL/mg/cm. Moreover, the “Absorption coefficient at Λ max” value in data set [6] worked out at 27.2 mL/mg/cm.

Turning to `CCCC1(CCC)c2cc(C(=O)C(CCSc3ccc(Cl)cc3)=NOC(C)=O)ccc2-c2ccc([N+](=O)[O-])cc21` [Compound D-15], the “20-μm pattern line width” value in data set [7] (10 mJ/cm^2) came to 19.5; in data set [7] (20 mJ/cm^2) it was 19.9; in data set [7] (40 mJ/cm^2), 20.7; in data set [7] (60 mJ/cm^2), 21.4; in data set [7] (80 mJ/cm^2) it was 22.3; in data set [1] (setting [13]), 19.5. Also, the “20-μm pattern line width” value in data set [1] (setting [8]) is 19.9; in data set [1] (setting [9]), 20.7; in data set [1] (setting [10]) it was 21.4; in data set [1] (setting [12]), 22.3. The “Average transmittance (700 nm to 400 nm) Solution” value in data set [3] was found to be 86.2%. For the same compound, in data set [4], the “Average transmittance (700 nm to 400 nm) Transparent cured film” value came out at 99.1%. In data set [4], the “Transmittance (400 nm) Transparent cured film” value amounted to 91.9%. Moreover, the Decomposition point in data set [5] is 202.1 °C. The “Λ max (absorption maximum wavelength)” value in data set [6] is 346.0 nm. Also, the “Absorption coefficient at 365 nm” value in data set [6] was 36.7 mL/mg/cm. The “Absorption coefficient at Λ max” value in data set [6] was 52.6 mL/mg/cm.

As to `CCCCCCC1(CCCCCC)c2cc(C(=O)c3ccc(F)cc3)ccc2-c2ccc(/C(CC(C)N(OC(C)=O)C(C)=O)=N\OC(C)=O)cc21` (centres unmarked) [Compound 9], the “20-μm pattern line width” value was determined as 19.9 in data set [7] (10 mJ/cm^2); 20.5 in data set [7] (20 mJ/cm^2); 21.3 in data set [7] (40 mJ/cm^2); 22.2 in data set [7] (60 mJ/cm^2); 22.8 in data set [7] (80 mJ/cm^2); 19.9 in data set [1] (setting [8]). For the same compound, the “20-μm pattern line width” value was found to be 20.5 in data set [1] (setting [9]), 21.3 in data set [1] (setting [10]), 22.2 in data set [1] (setting [11]) and 22.8 in data set [1] (setting [12]). Besides, the “Average transmittance (700 nm to 400 nm) Solution” value in data set [3] worked out at 94.0%. Moreover, the “Average transmittance (700 nm to 400 nm) Transparent cured film” value in data set [4] was 100.0%. For the same compound, the “Transmittance (400 nm) Transparent cured film” value in data set [4] stood at 99.4%. Further, the “transparency of photosensitive composition and formed product (in words)” value in data set [4] (setting [14]) was “additionally excellent transparency”. The same compound came in with a Decomposition point in data set [5] of 192.7 °C. Besides, the “Λ max (absorption maximum wavelength)” value in data set [6] turned out to be 330.0 nm. Also, the “Absorption coefficient at 365 nm” value in data set [6] was 3.0 mL/mg/cm. In data set [6], the “Absorption coefficient at Λ max” value amounted to 54.0 mL/mg/cm.

As for `CCCC1(CCC)c2cc(C(CCCSc3ccc(Cl)cc3)=NOC(C)=O)ccc2-c2ccc([N+](=O)[O-])cc21` [Compound D-14], the “20-μm pattern line width” value in data set [7] (10 mJ/cm^2) was determined as 19.9; in data set [7] (20 mJ/cm^2), 20.6; in data set [7] (40 mJ/cm^2), 21.7; in data set [7] (60 mJ/cm^2), 22.8; in data set [7] (80 mJ/cm^2), 23.2; in data set [1] (setting [13]), 19.9. The “20-μm pattern line width” value was found to be 20.6 in data set [1] (setting [8]), 21.7 in data set [1] (setting [9]), 22.8 in data set [1] (setting [10]) and 23.2 in data set [1] (setting [12]). The “sensitivity to the active energy ray (in words)” value in data set [1] (setting [14]) was “additionally high sensitivity to the active energy ray”. Also, the “Average transmittance (700 nm to 400 nm) Solution” value in data set [3] was found to be 65.1%. For the same compound, in data set [4], the “Average transmittance (700 nm to 400 nm) Transparent cured film” value is recorded as 99.5%. Further, in data set [4], the “Transmittance (400 nm) Transparent cured film” value is on record as 92.7%. The compound further returned a Decomposition point in data set [5] of 186.9 °C. Moreover, in data set [6], the “Λ max (absorption maximum wavelength)” value came out at 345.5 nm. In addition, the “Absorption coefficient at 365 nm” value in data set [6] worked out at 36.3 mL/mg/cm. Besides, in data set [6], the “Absorption coefficient at Λ max” value was found to be 53.9 mL/mg/cm.
